Like-named read-outs stand apart in the source and are kept apart here.
Assays:
Gli-luciferase activity = assay: Reporter gene assay (RGA) in TMHh12 cells, antagonism of Gli-luciferase activity in the presence of a Smo agonist; type: cell-based
Procedure: Activity of the compounds was evaluated using a reporter gene assay (RGA) in TMHh12 cells.

[1] = biological target: mouse Smoothened receptor (Mus musculus, UniProt P56726); assay: Smo binding assay, displacement of radio-labeled smoothened agonist, filter binding format (mouse); details: displacement of small molecule agonist of Smoothened, read-out: Mouse Smo bdg., IC50
From the text: A Smo binding assay was developed using radio-labeled smoothened agonist for compound competition.

[2] = biological target: human Smoothened receptor (Homo sapiens, UniProt Q99835); assay: Smo binding assay, displacement of radio-labeled smoothened agonist, filter binding format (human); details: displacement of small molecule agonist of Smoothened, read-out: Human Smo bdg., IC50
From the text: A Smo binding assay was developed using radio-labeled smoothened agonist for compound competition. Table 9 lists the IC50 for displacement of a small molecule agonist of Smoothened determined in a filter binding format for the mouse and human Smoothened receptor.

[3] = 25 nM small molecule Smo agonist, read-out: RGA (25 nM Smo agonist) IC50
[4] = read-out: RGA (1 nM Smo agonist) IC50, 1 nM small molecule Smo agonist

Sequence of mouse Smoothened receptor (P56726 33-793): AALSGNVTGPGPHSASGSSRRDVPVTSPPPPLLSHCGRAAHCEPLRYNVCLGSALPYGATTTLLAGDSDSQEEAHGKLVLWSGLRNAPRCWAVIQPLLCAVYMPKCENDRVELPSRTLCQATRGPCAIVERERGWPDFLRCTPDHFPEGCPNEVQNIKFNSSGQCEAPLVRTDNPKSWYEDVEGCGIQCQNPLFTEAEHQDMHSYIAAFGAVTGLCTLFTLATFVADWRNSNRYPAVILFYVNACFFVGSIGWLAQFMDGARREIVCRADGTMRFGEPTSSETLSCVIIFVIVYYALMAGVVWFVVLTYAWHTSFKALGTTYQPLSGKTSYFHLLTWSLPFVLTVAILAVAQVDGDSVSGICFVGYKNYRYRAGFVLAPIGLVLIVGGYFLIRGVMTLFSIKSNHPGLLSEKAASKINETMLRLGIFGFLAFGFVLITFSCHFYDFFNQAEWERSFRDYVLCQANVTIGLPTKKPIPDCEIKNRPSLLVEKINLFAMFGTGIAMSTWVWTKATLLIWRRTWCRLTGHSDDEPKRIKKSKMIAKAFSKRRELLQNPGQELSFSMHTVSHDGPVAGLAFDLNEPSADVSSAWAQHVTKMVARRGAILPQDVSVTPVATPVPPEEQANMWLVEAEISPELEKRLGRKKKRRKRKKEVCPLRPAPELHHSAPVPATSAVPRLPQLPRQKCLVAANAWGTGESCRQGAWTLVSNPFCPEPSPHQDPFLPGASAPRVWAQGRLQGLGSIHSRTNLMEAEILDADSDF
Sequence of human Smoothened receptor (Q99835 28-787): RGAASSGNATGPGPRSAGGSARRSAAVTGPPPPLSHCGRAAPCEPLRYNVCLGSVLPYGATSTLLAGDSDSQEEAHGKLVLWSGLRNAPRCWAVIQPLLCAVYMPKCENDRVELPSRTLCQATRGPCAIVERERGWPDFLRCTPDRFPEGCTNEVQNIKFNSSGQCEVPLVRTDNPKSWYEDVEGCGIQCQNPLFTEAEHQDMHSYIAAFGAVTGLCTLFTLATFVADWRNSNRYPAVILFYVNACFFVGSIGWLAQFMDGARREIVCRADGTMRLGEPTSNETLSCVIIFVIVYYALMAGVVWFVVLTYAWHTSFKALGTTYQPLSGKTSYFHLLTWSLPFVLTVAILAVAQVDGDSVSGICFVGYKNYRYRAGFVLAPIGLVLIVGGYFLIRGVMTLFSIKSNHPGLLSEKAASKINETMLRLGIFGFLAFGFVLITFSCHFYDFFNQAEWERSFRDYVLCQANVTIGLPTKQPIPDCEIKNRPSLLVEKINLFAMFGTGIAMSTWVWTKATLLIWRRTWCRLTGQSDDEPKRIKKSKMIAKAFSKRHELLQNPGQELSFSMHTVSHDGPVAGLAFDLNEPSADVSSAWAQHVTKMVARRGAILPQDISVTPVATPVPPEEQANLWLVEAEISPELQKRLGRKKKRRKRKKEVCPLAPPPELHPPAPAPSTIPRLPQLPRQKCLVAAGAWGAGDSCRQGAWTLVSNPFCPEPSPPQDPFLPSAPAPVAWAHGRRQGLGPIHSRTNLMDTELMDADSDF

Row | IC50 (Gli-luciferase activity; [3]) | IC50 (Gli-luciferase activity; [4]) | IC50 [1] | IC50 [2] | SMILES
1 | 1000 to 10000 nM | < 100 nM | 10000 to 40000 nM | 1000 to 10000 nM | FC(F)(F)c1ccc(N2CCN(c3nnc(Cc4ccccc4)c4ccoc34)CC2)nc1 [Example 246, 4-Benzyl-7-[4-(5-trifluoromethyl-pyridin-2-yl)-piperazin-1-yl]-furo[2,3-d]pyridazine]
2 | 1000 to 10000 nM | 1000 to 10000 nM | 100 to 1000 nM | 100 to 1000 nM | FC(F)(F)c1ccc(N2CCN(c3nnc(Cc4ccccc4)c4[nH]cnc34)CC2)nc1 [Example 247, 7-Benzyl-4-[4-(5-trifluoromethyl-pyridin-2-yl)-piperazin-1-yl]-1H-imidazo[4,5-d]pyridazine]

From patent US8536168B2 (Novartis AG, priority 2007, dated 2013)
